From patent US12421254B2, “KRAS modulators and uses thereof” (Quanta Therapeutics, Inc., priority 2023, dated 2025)

Columns and labels:
[1] = biological target: GST-tagged KRAS-G12D (2-169) (Homo sapiens, UniProt P01116, G12D); assay: Nucleotide exchange assay (NEA), SOS-mediated, HTRF, KRAS G12D; type: biochemical; conditions: Table 4; IC50 extracted at 30 min; 20 nM SOScat; read-out: NEA G12D IC50
Excerpt: (§1) This activity is tightly regulated by GTPase activating proteins (GAPs) and guanine nucleotide exchange factors (GEFs). GEFs, such as SOS1/2, activate Ras proteins by exchanging GDP for GTP, thus returning Ras to its active conformation (Simanshu, Nissley, & McCormick, 2017). […] Homogenous time resolved fluorescence (HTRF) was used to detect SOS-mediated binding of a fluorescent GTP analog, GTP-DY-647P1 (Jena Biosciences NU-820-647P1) to GST-tagged KRAS-G12D (2-169) or to GST-tagged KRAS-G12V (2-169, Reaction Biology, MSC-11-540).
(§2) GST-tagged KRAS-G12D (2-169) and anti-GST MAb Tb Cryptate Gold (CisBio 61GSTTLB) were diluted into assay buffer (20 mM HEPES, pH 7.3, 150 mM NaCl, 5 mM MgCl2, 0.05% BSA 0.0025% NP40, 1 mM DTT) to prepare a 2.5× donor solution. 5× compound was added to the protein mixture and incubated for 1 h at RT. 2.5× acceptor solution containing SOS1cat (564-1049, Reaction Biology MSC-11-502) and GTP-DY-647P1 were then added to the donor KRAS mixture such that the final concentration of the reaction contained 0.25 nM GST-tagged KRAS-G12D (2-169), 20 nM SOScat, and 150 nM GTP-DY-647P1. The reaction was monitored using at RT with the Envision multimode plate reader (Ex/Em 337/665, […]) up to 90 minutes at 5 minute intervals. To monitor KRAS-G12V SOS-mediated nucleotide exchange, 80 nM SOS was added to reaction instead of 20 nM. All other components were the same as previously described. Data was blanked to reactions without SOS1 and % inhibition was calculated such that DMSO only =0% and blank=100%. Curve fitting was done using a 4 parameter fit. Reported IC50 values were extracted at 30 min and 90 min for the KRAS-G12D and KRAS-G12V assays, respectively.
NEA KRAS G12D IC50 (uM) values of selected compounds are depicted in Table 2 with compounds having a value <0.01 uM as ++++; ≥0.01 uM to 0.1 uM as +++; ≥0.1 uM to 1 uM as ++; ≥1 uM to 20 uM as +; and ≥20 uM as NA.

[2] = biological target: GST-tagged KRAS-G12V (2-169) (Homo sapiens, UniProt P01116, G12V); assay: Nucleotide exchange assay (NEA), SOS-mediated, HTRF, KRAS G12V; type: biochemical; conditions: Table 4; IC50 extracted at 90 min; 80 nM SOS
Excerpt: as §1, §2

GST-tagged KRAS-G12V (2-169), sequence (P01116 2-169 isoform P01116-2 G12V): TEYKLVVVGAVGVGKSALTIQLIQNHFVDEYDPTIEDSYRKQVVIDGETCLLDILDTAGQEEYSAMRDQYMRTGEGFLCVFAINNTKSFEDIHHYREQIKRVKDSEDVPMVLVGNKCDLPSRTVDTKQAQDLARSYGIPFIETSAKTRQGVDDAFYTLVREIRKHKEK
GST-tagged KRAS-G12D (2-169), sequence (P01116 2-169 isoform P01116-2 G12D): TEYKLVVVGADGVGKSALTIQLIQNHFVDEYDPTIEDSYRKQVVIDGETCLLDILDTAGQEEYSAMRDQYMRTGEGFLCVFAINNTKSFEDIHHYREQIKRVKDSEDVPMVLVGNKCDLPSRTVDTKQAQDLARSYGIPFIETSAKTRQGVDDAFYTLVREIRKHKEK

SMILES | IC50 [1] | IC50 [2]
COC[C@@H]1CC[C@@H](COc2nc(N3CC4(C3)SCc3sc(N)c(C#N)c34)nc(N(CC(F)F)C(C)c3cccnc3N)n2)N1 (mixture of isomers) [Compound 211, 2-amino-1′-[4-[[(1R)-1-(2-amino-3-pyridyl)ethyl]-(2,2-difluoroethyl)amino]-6-[[(2SR,5SR)-5-(methoxymethyl)pyrrolidin-2-yl]methoxy]-1,3,5-triazin-2-yl]spiro[6H-thieno[3,4-b]thiophene-4,3′-azetidine]-3-carbonitrile] | < 0.01 µM | < 0.01 µM
CC(c1cccnc1N)N(C)c1nc(OC[C@@H]2CCC(=O)N2)nc(N2CC3(CCc4sc(N)c(C#N)c43)C2)n1 (stereo partly drawn) [Compound 112, 2-amino-1′-[4-[1-(2-amino-3-pyridyl)ethyl-methyl-amino]-6-[[(2S)-5-oxopyrrolidin-2-yl]methoxy]-1,3,5-triazin-2-yl]spiro[5,6-dihydrocyclopenta[b]thiophene-4,3′-azetidine]-3-carbonitrile] | 1 to 20 µM | 0.1 to 1 µM
N#Cc1c(N)sc2c1C1(CN(c3nc(OCC4(CN5CCOCC5)CC4)nc(N4CCNC[C@@H]4CO)n3)C1)SC2 [Compound 185, (R)-2′-amino-1-(4-(2-(hydroxymethyl)piperazin-1-yl)-6-((1-(morpholinomethyl)cyclopropyl)methoxy)-1,3,5-triazin-2-yl)-6′H-spiro[azetidine-3,4′-thieno[3,4-b]thiophene]-3′-carbonitrile] | < 0.01 µM | 0.1 to 1 µM
N#Cc1c(N)sc2c1C1(CC2)CN(c2nc(OC[C@@]34CCCN3C[C@H](F)C4)nc(N3CCC[C@@H](O)C3)n2)C1 [Compound 23, 2-amino-1′-[4-[[(2R,8S)-2-fluoro-1,2,3,5,6,7-hexahydropyrrolizin-8-yl]methoxy]-6-[(3R)-3-hydroxy-1-piperidyl]-1,3,5-triazin-2-yl]spiro[5,6-dihydrocyclopenta[b]thiophene-4,3′-azetidine]-3-carbonitrile] | 0.1 to 1 µM | 0.1 to 1 µM
CN(Cc1ccn[nH]1)c1nc(OC[C@@]23CCCN2C[C@H](F)C3)nc(N2CC3(CCc4sc(N)c(C#N)c43)C2)n1 (racemic) [Compound 105, 2-amino-1′-[4-[methyl(1H-pyrazol-5-ylmethyl)amino]-6-[[rac-(2R,8S)-2-fluoro-1,2,3,5,6,7-hexahydropyrrolizin-8-yl]methoxy]-1,3,5-triazin-2-yl]spiro[5,6-dihydrocyclopenta[b]thiophene-4,3′-azetidine]-3-carbonitrile] | 1 to 20 µM | 0.1 to 1 µM
CCN(c1nc(OCC2(CN(C)C)CC2(F)F)nc(N2CC3(C2)SCc2sc(N)c(C#N)c23)n1)[C@H](C)c1cccnc1N (stereo partly drawn) [Compound 198, 2-amino-1′-[4-[[(1R)-1-(2-amino-3-pyridyl)ethyl]-ethyl-amino]-6-[[1-[(dimethylamino)methyl]-2,2-difluoro-cyclopropyl]methoxy]-1,3,5-triazin-2-yl]spiro[6H-thieno[3,4-b]thiophene-4,3′-azetidine]-3-carbonitrile] | < 0.01 µM | < 0.01 µM
N#Cc1c(N)sc2c1C1(CC2)CN(c2nc(OCC3(CN4CCOCC4)CC3)nc(OC3COCC3O)n2)C1 (racemic) [Compound 77, 2-amino-1′-[4-[rac-(3S,4S)-4-hydroxytetrahydrofuran-3-yl]oxy-6-[[1-(morpholinomethyl)cyclopropyl]methoxy]-1,3,5-triazin-2-yl]spiro[5,6-dihydrocyclopenta[b]thiophene-4,3′-azetidine]-3-carbonitrile; 2,2,2-trifluoroacetic acid] | 1 to 20 µM | 0.1 to 1 µM
CC(C1=NN=CC1Cl)N(C)c1nc(OC[C@@]23CCCN2C[C@H](F)C3)nc(N2CC3(CCc4sc(N)c(C#N)c43)C2)n1 (stereo partly drawn) [Compound 127, 2-amino-1′-[4-[1-(4-chloro-1H-pyrazol-5-yl)ethyl-methyl-amino]-6-[[(2R,8S)-2-fluoro-1,2,3,5,6,7-hexahydropyrrolizin-8-yl]methoxy]-1,3,5-triazin-2-yl]spiro[5,6-dihydrocyclopenta[b]thiophene-4,3′-azetidine]-3-carbonitrile] | 1 to 20 µM | 0.1 to 1 µM
CC(c1cccnc1C(F)F)N(C)c1nc(OC[C@@]23CCCN2C[C@H](F)C3)nc(N2CC3(C2)SCc2sc(N)c(C#N)c23)n1 (stereo partly drawn) [Compound 205, 2-amino-1′-[4-[1-[2-(difluoromethyl)-3-pyridyl]ethyl-methyl-amino]-6-[[(2R,8S)-2-fluoro-1,2,3,5,6,7-hexahydropyrrolizin-8-yl]methoxy]-1,3,5-triazin-2-yl]spiro[6H-thieno[3,4-b]thiophene-4,3′-azetidine]-3-carbonitrile] | 1 to 20 µM | 0.1 to 1 µM
C[C@H](c1cccnc1N)N(C)c1nc(OC[C@@]23CCCN2C[C@H](F)C3)nc(N2CC3(CCc4cnn(C)c43)C2)n1 [Compound 278, N-[(1R)-1-(2-amino-3-pyridyl)ethyl]-4-[[(2R,8S)-2-fluoro-1,2,3,5,6,7-hexahydropyrrolizin-8-yl]methoxy]-N-methyl-6-(1-methylspiro[4,5-dihydrocyclopenta[d]pyrazole-6,3′-azetidine]-1′-yl)-1,3,5-triazin-2-amine] | 1 to 20 µM | 1 to 20 µM
CC(c1cncnc1O)N(C)c1nc(OC[C@@]23CCCN2C[C@H](F)C3)nc(N2CC3(CCc4sc(N)c(C#N)c43)C2)n1 (stereo partly drawn) [Compound 155, 2-amino-1′-[4-[[(2R,8S)-2-fluoro-1,2,3,5,6,7-hexahydropyrrolizin-8-yl]methoxy]-6-[1-(4-hydroxypyrimidin-5-yl)ethyl-methyl-amino]-1,3,5-triazin-2-yl]spiro[5,6-dihydrocyclopenta[b]thiophene-4,3′-azetidine]-3-carbonitrile] | 1 to 20 µM | 1 to 20 µM
C[C@@]1(CO)C[C@H](O)CN1c1nc(OC[C@@]23CCCN2C[C@H](F)C3)nc(N2CC3(CCc4sc(N)c(C#N)c43)C2)n1 [Compound 66, 2-amino-1′-[4-[[(2R,8S)-2-fluoro-1,2,3,5,6,7-hexahydropyrrolizin-8-yl]methoxy]-6-[(2S,4S)-4-hydroxy-2-(hydroxymethyl)-2-methyl-pyrrolidin-1-yl]-1,3,5-triazin-2-yl]spiro[5,6-dihydrocyclopenta[b]thiophene-4,3′-azetidine]-3-carbonitrile] | 0.1 to 1 µM | 0.01 to 0.1 µM
N#Cc1c(N)sc2c1C1(CN(c3nc(OC[C@@]45CCCN4C[C@H](F)C5)nc(Oc4cc[nH]n4)n3)C1)SC2 [Compound 165, 2-amino-1′-[4-[[(2R,8S)-2-fluoro-1,2,3,5,6,7-hexahydropyrrolizin-8-yl]methoxy]-6-(1H-pyrazol-3-yloxy)-1,3,5-triazin-2-yl]spiro[6H-thieno[3,4-b]thiophene-4,3′-azetidine]-3-carbonitrile] | 1 to 20 µM | 0.1 to 1 µM
N#Cc1c(N)sc2c1C1(CN(c3nc(OC[C@@]45CCCN4C[C@H](F)C5)nc(N4C5CSCC4C5)n3)C1)SC2 [Compound 269, 2-amino-1′-[4-[[(2R,8S)-2-fluoro-1,2,3,5,6,7-hexahydropyrrolizin-8-yl]methoxy]-6-(3-thia-6-azabicyclo[3.1.1]heptan-6-yl)-1,3,5-triazin-2-yl]spiro[6H-thieno[3,4-b]thiophene-4,3′-azetidine]-3-carbonitrile] | 0.1 to 1 µM | 0.01 to 0.1 µM
CC(c1nsnc1N)N(C)c1nc(OC[C@@]23CCCN2C[C@H](F)C3)nc(N2CC3(C2)SCc2sc(N)c(C#N)c23)n1 (single isomer, unassigned) [Compound 184B, 2-amino-1′-[4-[[(1*)-1-(4-amino-1,2,5-thiadiazol-3-yl)ethyl]-methyl-amino]-6-[[(2R,8S)-2-fluoro-1,2,3,5,6,7-hexahydropyrrolizin-8-yl]methoxy]-1,3,5-triazin-2-yl]spiro[6H-thieno[2,3-c]thiophene-4,3′-azetidine]-3-carbonitrile] | 0.1 to 1 µM | 0.01 to 0.1 µM
CC(c1ccn(C)n1)N(C)c1nc(OC[C@@]23CCCN2C[C@H](F)C3)nc(N2CC3(CCc4sc(N)c(C#N)c43)C2)n1 (stereo partly drawn) [Compound 119, 2-amino-1′-[4-[[(2R,8S)-2-fluoro-1,2,3,5,6,7-hexahydropyrrolizin-8-yl]methoxy]-6-[methyl-[1-(1-methylpyrazol-3-yl)ethyl]amino]-1,3,5-triazin-2-yl]spiro[5,6-dihydrocyclopenta[b]thiophene-4,3′-azetidine]-3-carbonitrile] | 1 to 20 µM | 1 to 20 µM
